From ChEMBL document CHEMBL1641495, “8-Aza-7,9-dideazaxanthine acyclic nucleoside phosphonate inhibitors of thymidine phosphorylase” (Bioorg Med Chem Lett, 2011)
pIC50: −log10 of the molar value.

Tests used:
Thymidine phosphorylase [1] = target: T1, Thymidine phosphorylase (Escherichia coli K-12, UniProt P07650); test: Inhibition of [3H]methylthymidine binding to Escherichia coli thymidine phosphorylase after 20 mins by scintillation counting
[2] = target: Thymidine phosphorylase (Escherichia coli K-12) (UniProt P07650); test: Inhibition of [3H]methylthymidine binding to Escherichia coli thymidine phosphorylase at 100 uM after 20 mins by scintillation counting
Chain of Thymidine phosphorylase (Escherichia coli K-12) (P07650 whole entry, looked up): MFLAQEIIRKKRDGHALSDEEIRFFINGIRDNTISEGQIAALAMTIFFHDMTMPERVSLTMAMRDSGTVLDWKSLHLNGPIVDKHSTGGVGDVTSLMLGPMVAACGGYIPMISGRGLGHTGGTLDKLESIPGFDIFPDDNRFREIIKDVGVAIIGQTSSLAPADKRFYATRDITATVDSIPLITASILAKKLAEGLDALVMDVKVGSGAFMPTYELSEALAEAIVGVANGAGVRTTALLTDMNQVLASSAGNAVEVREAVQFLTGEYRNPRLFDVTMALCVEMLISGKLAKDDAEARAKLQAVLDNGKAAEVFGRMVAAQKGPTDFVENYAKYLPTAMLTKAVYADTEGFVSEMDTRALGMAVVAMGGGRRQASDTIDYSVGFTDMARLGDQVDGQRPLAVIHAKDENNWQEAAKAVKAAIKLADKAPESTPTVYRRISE

[3] = target: Thymidine phosphorylase (Escherichia coli K-12) (UniProt P07650); test: Inhibition of [3H]methylthymidine binding to Escherichia coli thymidine phosphorylase at 20 uM after 20 mins by scintillation counting
Thymidine phosphorylase [4] = target: T1, Thymidine phosphorylase; test: Inhibition of [3H]methylthymidine binding to Escherichia coli thymidine phosphorylase after 10 mins by scintillation counting

T1 sequence (P07650 whole entry): as the sequence (P07650 whole entry, looked up) above

Row | pIC50 (Thymidine phosphorylase [1]) | inhibition [2] | inhibition [3] | pIC50 (Thymidine phosphorylase [4]) | SMILES
1 | 4.92 | – | – | – | O=c1[nH]c(=O)c2cn(CCCCCCCCP(=O)(O)O)cc2[nH]1
2 | – | 83% | 48% | 4.94 | O=c1[nH]c(=O)n(CCCCCCCCP(=O)(O)O)c2[nH]ccc12
3 | 5.17 | – | – | – | O=c1[nH]c(=O)n(CCCCCCCCP(=O)(O)O)c2c[nH]cc12
4 | 5.46 | – | – | – | O=c1[nH]c(=O)c2cn(CCCCCCCCn3cc4[nH]c(=O)[nH]c(=O)c4c3)cc2[nH]1
